Source: patent publication US20080063668A1, “Nitroimidazole and terconazole composition and method” (priority 2006, published 2008)
Values belong to the molecule of their own block, whether it stands above or below them.

Legend:
[1] = test system: Mobiluncus mulieris ATCC 35243; test: Inhibition of bacteria growth, drug dilution tubes, anaerobic; format: cell-based; design: key to growth: (+) for growth; (−) for no growth; (±) for suboptimal growth after an initial observation of growth
Experimental: Serial dilutions of tinidazole and terconazole were prepared by adding measured amounts of each substance to water (both individually and in combination). Seven bacterial organisms that are common pathogens in bacterial vaginosis were grown anaerobically in the medium as listed in Table 4 under a N2/H2/CO2 (85:5:10) head space atmosphere. [table] These cultures were diluted to a 0.5 McFarland standard prior to inoculation of drug dilution tubes. One (1) mL of the 0.5 McFarland preparation was inoculated to an anaerobically prepared test tube containing 0.8 mL of Difco anaerobic medium (DAMM) and 0.2 mL of appropriate diluted antimicrobial or antimicrobial combination for a total of 2 mL. The inoculated tubes were then incubated at 37° C. and monitored daily for growth. Growth was scored with a (+) for growth, (−) for no growth, and (±) for suboptimal growth after an initial observation of growth. Tinidazole is abbreviated as TNZ and terconazole is abbreviated as TER in Tables 5 through 11.

[2] = Solubilization of terconazole in water with acid (crystal observation); format: physicochemical
Experimental: Weighed amounts of terconazole were added to separate containers including an acid in water, applying heat, if necessary, to dissolve the terconazole. The amount of acid was selected to be about equimolar with the amount of terconazole added. After the terconazole was dissolved, each solution was cooled to about 4° C. to force crystallization of the terconazole. If crystals were not observed upon cooling, seed crystals of terconazole were then added and the solutions were again cooled to about 4° C. for about 72 hours. After allowing for crystal formation in all solutions, the solutions were allowed to warm to room temperature (about 20° C.).
Table 2 includes dissolution data for a number of compositions comprising varying amounts of terconazole and various acids. The data in Table 2 clearly indicate that solutions having a terconazole concentration of at least about 3 percent by weight and free from terconazole crystals at 20° C. were obtained utilizing tartaric acid and malic acid.

[3] = Solubilization of tinidazole in water with acid (crystal observation); format: physicochemical; details: 20° C., at least 14 days
Experimental: Weighed amounts of tinidazole were added to separate containers including an acid in water, applying heat, if necessary, to dissolve the tinidazole. The amount of acid was selected to be about equimolar with the amount of tinidazole added. After the tinidazole was dissolved, each solution was cooled to about 2° C. to force crystallization of some of the tinidazole. If crystals were not observed upon cooling, seed crystals of tinidazole were added. After crystal formation was observed, the solutions were allowed to warm to room temperature (about 20° C.). […] The absence of crystals after 14 days indicates effective dissolution of tinidazole. Table 1 includes dissolution data for a number of compositions comprising varying amounts of tinidazole and various acids. The data in Table 1 clearly indicate that solutions having a tinidazole concentration of at least about 0.5 percent by weight and free from tinidazole crystals at 20° C. were obtained utilizing citric acid, hydrochloric acid, acetic acid, tartaric acid, and malic acid. Tinidazole concentrations as high as about 0.55 percent by weight were obtained utilizing tartaric acid and citric acid.

[4] = Combined solubilization of tinidazole and terconazole in water with citric acid; format: physicochemical; details: 20° C., terconazole about 0.8 percent by weight
Experimental: Weighed amounts of tinidazole and terconazole were added to separate containers including citric acid in water, applying heat, if necessary, to dissolve the tinidazole and terconazole. The amount of citric acid was selected to be about equimolar with the molar amount of tinidazole and terconazole added. After the tinidazole and terconazole was dissolved, each solution was cooled to about 4° C. to force crystallization of the tinidazole and terconazole. If crystals were not observed upon cooling, seed crystals of tinidazole were added and the solutions were again cooled to about 4° C. […] The absence of crystals after 14 days indicates effective dissolution of tinidazole and terconazole. Table 3 includes dissolution data for a number of compositions comprising varying amounts of tinidazole, terconazole and citric acid. The data in Table 3 clearly indicate that solutions having a tinidazole concentration of at least about 0.6 percent by weight and a terconazole concentration of about 0.8 percent by weight and free from crystals at 20° C. were obtained utilizing citric acid.

terconazole concentration of solutions free from terconazole crystals ([2]; 20° C., about 14 days, tartaric acid and malic acid): at least 3 percent by weight
terconazole solubilized ([2]; citric acid, separate study): 2.4 percent by weight
Structure (SMILES): CC(C)N1CCN(c2ccc(OCC3COC(Cn4cncn4)(c4ccc(Cl)cc4Cl)O3)cc2)CC1 (stereo not drawn) [TER, cis-1-[p[[2-(2,4-dichlorophenyl)-2-(1 H-1,2,4-triazol-1-ylmethyl)-1,3-dioxolan-4-yl]methoxy]phenyl]-4-isopropylpiperazine]
growth ([1]; TER 3.1 μg/ml, DAY 1): (+)
growth ([1]; TER 3.1 μg/ml, DAY 2): (+)
growth ([1]; TER 3.1 μg/ml, DAY 3): (+)
growth ([1]; TER 3.1 μg/ml, DAY 4): (+)
growth ([1]; TER 3.1 μg/ml, DAY 5): (+)
growth ([1]; TER 6.2 μg/ml, DAY 1): (+)
growth ([1]; TER 6.2 μg/ml, DAY 2): (+)
growth ([1]; TER 6.2 μg/ml, DAY 3): (+)
growth ([1]; TER 6.2 μg/ml, DAY 4): (+)
growth ([1]; TER 6.2 μg/ml, DAY 5): (+)
growth ([1]; TER 12.5 μg/ml, DAY 1): (+)
growth ([1]; TER 12.5 μg/ml, DAY 2): (+)
growth ([1]; TER 12.5 μg/ml, DAY 3): (+)
growth ([1]; TER 12.5 μg/ml, DAY 4): (+)
growth ([1]; TER 12.5 μg/ml, DAY 5): (+)
growth ([1]; TER 25 μg/ml, DAY 1): (+)
growth ([1]; TER 25 μg/ml, DAY 2): (+)
growth ([1]; TER 25 μg/ml, DAY 3): (+)
growth ([1]; TER 25 μg/ml, DAY 4): (+)
growth ([1]; TER 25 μg/ml, DAY 5): (+)
growth ([1]; TER 50 μg/ml, DAY 1): (+)
growth ([1]; TER 50 μg/ml, DAY 2): (+)
growth ([1]; TER 50 μg/ml, DAY 3): (+)
growth ([1]; TER 50 μg/ml, DAY 4): (+)
growth ([1]; TER 50 μg/ml, DAY 5): (+)
growth ([1]; TER 100 μg/ml, DAY 1): (+)
growth ([1]; TER 100 μg/ml, DAY 2): (+)
growth ([1]; TER 100 μg/ml, DAY 3): (+)
growth ([1]; TER 100 μg/ml, DAY 4): (+)
growth ([1]; TER 100 μg/ml, DAY 5): (+)
growth ([1]; TER 200 μg/ml, DAY 1): (+)
growth ([1]; TER 200 μg/ml, DAY 2): (+)
growth ([1]; TER 200 μg/ml, DAY 3): (+)
growth ([1]; TER 200 μg/ml, DAY 4): (+)
growth ([1]; TER 200 μg/ml, DAY 5): (+)
growth ([1]; TER 400 μg/ml, DAY 1): (−)
growth ([1]; TER 400 μg/ml, DAY 2): (−)
growth ([1]; TER 400 μg/ml, DAY 3): (−)
growth ([1]; TER 400 μg/ml, DAY 4): (−)
growth ([1]; TER 400 μg/ml, DAY 5): (−)
growth ([1]; TER 800 μg/ml, DAY 1): (−)
growth ([1]; TER 800 μg/ml, DAY 2): (−)
growth ([1]; TER 800 μg/ml, DAY 3): (−)
growth ([1]; TER 800 μg/ml, DAY 4): (−)
growth ([1]; TER 800 μg/ml, DAY 5): (−)
antibacterial activity compared with tinidazole ([1]; Tables 6 through 11): superior to the antibacterial compound tinidazole

tinidazole concentration of solutions free from tinidazole crystals ([3]; citric acid, hydrochloric acid, acetic acid, tartaric acid, and malic acid, about equimolar): at least 0.5 percent by weight
tinidazole concentration of solutions free from tinidazole crystals ([3]; tartaric acid and citric acid): about 0.55 percent by weight
tinidazole concentration of solutions free from crystals [4]: at least 0.6 percent by weight
Structure (SMILES): CCS(=O)(=O)CCn1c([N+](=O)[O-])cnc1C [TNZ, 1-[2-(ethylsulfonyl)ethyl]-2-methyl-5-nitroimidazole]
growth ([1]; TNZ 2 μg/ml, DAY 1): (+)
growth ([1]; TNZ 2 μg/ml, DAY 2): (+)
growth ([1]; TNZ 2 μg/ml, DAY 3): (+)
growth ([1]; TNZ 2 μg/ml, DAY 4): (+)
growth ([1]; TNZ 2 μg/ml, DAY 5): (+)
growth ([1]; TNZ 3.9 μg/ml, DAY 1): (+)
growth ([1]; TNZ 3.9 μg/ml, DAY 2): (+)
growth ([1]; TNZ 3.9 μg/ml, DAY 3): (+)
growth ([1]; TNZ 3.9 μg/ml, DAY 4): (+)
growth ([1]; TNZ 3.9 μg/ml, DAY 5): (+)
growth ([1]; TNZ 7.8 μg/ml, DAY 1): (+)
growth ([1]; TNZ 7.8 μg/ml, DAY 2): (+)
growth ([1]; TNZ 7.8 μg/ml, DAY 3): (+)
growth ([1]; TNZ 7.8 μg/ml, DAY 4): (+)
growth ([1]; TNZ 7.8 μg/ml, DAY 5): (+)
growth ([1]; TNZ 15.6 μg/ml, DAY 1): (−)
growth ([1]; TNZ 15.6 μg/ml, DAY 2): (−)
growth ([1]; TNZ 15.6 μg/ml, DAY 3): (−)
growth ([1]; TNZ 15.6 μg/ml, DAY 4): (+)
growth ([1]; TNZ 15.6 μg/ml, DAY 5): (+)
growth ([1]; TNZ 31.3 μg/ml, DAY 1): (−)
growth ([1]; TNZ 31.3 μg/ml, DAY 2): (−)
growth ([1]; TNZ 31.3 μg/ml, DAY 3): (−)
growth ([1]; TNZ 31.3 μg/ml, DAY 4): (+)
growth ([1]; TNZ 31.3 μg/ml, DAY 5): (+)
growth ([1]; TNZ 62.5 μg/ml, DAY 1): (−)
growth ([1]; TNZ 62.5 μg/ml, DAY 2): (−)
growth ([1]; TNZ 62.5 μg/ml, DAY 3): (−)
growth ([1]; TNZ 62.5 μg/ml, DAY 4): (−)
growth ([1]; TNZ 62.5 μg/ml, DAY 5): (−)
growth ([1]; TNZ 125 μg/ml, DAY 1): (−)
growth ([1]; TNZ 125 μg/ml, DAY 2): (−)
growth ([1]; TNZ 125 μg/ml, DAY 3): (−)
growth ([1]; TNZ 125 μg/ml, DAY 4): (−)
growth ([1]; TNZ 125 μg/ml, DAY 5): (−)
growth ([1]; TNZ 250 μg/ml, DAY 1): (−)
growth ([1]; TNZ 250 μg/ml, DAY 2): (−)
growth ([1]; TNZ 250 μg/ml, DAY 3): (−)
growth ([1]; TNZ 250 μg/ml, DAY 4): (−)
growth ([1]; TNZ 250 μg/ml, DAY 5): (−)
growth ([1]; TNZ 500 μg/ml, DAY 1): (−)
growth ([1]; TNZ 500 μg/ml, DAY 2): (−)
growth ([1]; TNZ 500 μg/ml, DAY 3): (−)
growth ([1]; TNZ 500 μg/ml, DAY 4): (−)
growth ([1]; TNZ 500 μg/ml, DAY 5): (−)
